# In paper PMC4109680, “Identification and Preclinical Pharmacology of the γ-Secretase Modulator BMS-869780” (International Journal of Alzheimer's Disease, 2014):
# Experiments:
# [1] = Pharmacokinetics in male Sprague-Dawley rats; assay type: in vivo; conditions: plasma, Rat
# Protocol: (§1) Male Sprague-Dawley (SD) rats (300–350 g) were fasted overnight, and three per group received BMS-869780 either as an intravenous (IV) infusion in PEG400 : ethanol (90 : 10 w/w) at 1 mg/kg over 5 min via the jugular vein or as nanosuspension (d50 ca. 300 nm) by oral gavage at 5 mg/kg in Povidone K-30 : sodium lauryl sulfate : water (2.5 : 0.12 : 97.38 w/w/w/w). For the IV infusion, serial blood samples were obtained before dose and at 0.17, 0.25, 0.5, 0.75, 1, 2, 4, 6, 8, and 24 hours after dose. For the PO nanosuspension, serial blood samples were obtained before dose and at 0.25, 0.5, 0.75, 1, 2, 4, 6, 8, and 24 h after dose. Blood samples, ~0.3 mL, for all studies were collected from the jugular vein into K3EDTA-containing tubes and then centrifuged at 4°C (1500–2000 ×g) to obtain plasma, which was stored at −20°C until analysis by LC/MS/MS. In male beagle dogs, the PK of BMS-869780 was evaluated in a cross-over study design with a one-week washout between treatments. Dogs were fasted overnight, and three animals (9.5 to 10.7 kg) received BMS-869780 by IV infusion at 1 mg/kg over 5 minutes in PEG400 : ethanol (90 : 10 w/w) or as nanosuspension (d50 ca. 300 nm) by oral gavage at 5 mg/kg in Povidone K-30 : sodium lauryl sulfate : water (2.5 : 0.12 : 97.38 w/w/w/w). Serial blood samples (~0.3 mL) were collected from a saphenous vein into K3EDTA-containing tubes before dose and at 0.083, 0.17, 0.25, 0.5, 0.75, 1, 2, 4, 6, 8, and 24 hours after IV dose, and 0.25, 0.5, 0.75, 1, 2, 4, 6, 8, and 24 hours after oral dose, followed by centrifugation at 4°C (1500 to 2000 ×g) to obtain plasma. Samples were stored at −20°C until analysis of BMS-869780 levels by LC-MS/MS. In male cynomolgus monkeys, the PK of BMS-869780 was evaluated in a cross-over study design with a 1-week washout between treatments. Following an overnight fast, three animals (4.5 to 8 kg) received BMS-869780 by IV infusion via a femoral vein at 1 mg/kg over 10 minutes in PEG400 : ethanol (90 : 10), or by oral gavage at 5 mg/kg in Povidone K-30 : sodium lauryl sulfate : water (2.5 : 0.12 : 97.38). Serial blood samples, ~0.3 mL, were collected from a femoral artery into K3EDTA-containing tubes before dose and at 0.083, 0.17, 0.25, 0.5, 0.75, 1, 2, 4, 6, 8, and 24 hours after IV dose, and 0.25, 0.5, 0.75, 1, 2, 4, 6, 8, and 24 hours after oral dose, followed by centrifugation at 4°C (1500 to 2000 ×g) to obtain plasma. Samples were stored at −20°C until analysis of BMS-869780 levels by LC-MS/MS. The PK parameters of BMS-869780 were obtained by noncompartmental analysis of plasma concentration versus time data (WinNonlin software, Version 5.0; Pharsight Corporation, Mountain View, CA). The peak concentration (C max) and time for C max (T max) were recorded directly from experimental observations. The area under the curve from time zero to the last sampling time (AUC^0-T) and the area under the curve from time zero to infinity (AUC^INF) were calculated using a combination of linear and log trapezoidal summations. The total plasma clearance (CLTp), steady-state volume of distribution (Vss), apparent elimination half-life (T 1/2), and mean residence time (MRT) were estimated after IV administration. The absolute oral bioavailability (F) was estimated as the ratio of dose-normalized AUC values following oral and IV doses.
# (§2) Figure 9 Pharmacokinetics (PK) of BMS-869780 across species for prediction of human PK. Rats, dogs, and cynomolgus monkeys were dosed with BMS-869780 intravenously (IV ▲) at 1 mg/kg or oral nanosuspension (PO ●) at 5 mg/kg. Plasma concentrations of BMS-869780 were determined for up to 24 hours after the dose. (a) Rat. (b) Dog. (c) Cynomolgus monkey.
# [2] = Pharmacokinetics in male beagle dogs; assay type: in vivo; conditions: plasma, Dog
# Protocol: as §1, §2
compound,measurement,setting,value
COc1cc(Nc2nc3n(n2)CCCC[C@H]3c2ccc(F)cc2)ccc1-n1cnc(Cl)c1 [BMS-869780],AUC(0-t),[1]; IV 1 mg/kg,1.48 ± 0.121 µM·h
same,MRT,[1]; IV 1 mg/kg,1 ± 0.2 h
same,clearance,[1]; IV 1 mg/kg,24.3 ± 1.7 mL/min/kg
same,half-life,[1]; IV 1 mg/kg,2 ± 0.3 h
same,Vd,"[1]; IV 1 mg/kg, read-out: Vss",1.8 ± 0.5 L/kg
same,AUC(0-t),[1]; PO suspension 5 mg/kg,4 ± 0.964 µM·h
same,Cmax,[1]; PO suspension 5 mg/kg,674 ± 227 nM
same,Tmax,[1]; PO suspension 5 mg/kg,3.3 ± 1.2 h
same,bioavailability,[1]; PO suspension 5 mg/kg,54%
same,AUC(0-t),[2]; IV 1 mg/kg,6.64 ± 2.26 µM·h
same,MRT,[2]; IV 1 mg/kg,6.6 ± 2 h
same,clearance,[2]; IV 1 mg/kg,5.7 ± 1.7 mL/min/kg
same,half-life,[2]; IV 1 mg/kg,5.2 ± 1.4 h
same,Vd,"[2]; IV 1 mg/kg, read-out: Vss",2.2 ± 0.8 L/kg
same,AUC(0-t),[2]; PO suspension 5 mg/kg,4.55 ± 2.16 µM·h
same,Cmax,[2]; PO suspension 5 mg/kg,487 ± 155 nM
same,Tmax,[2]; PO suspension 5 mg/kg,1.7 ± 0.6 h
same,bioavailability,[2]; PO suspension 5 mg/kg,13%
